Test results as given in ChEMBL document CHEMBL3046322, “Insect growth regulatory effects by diterpenes from Calceolaria talcana Grau & Ehrhart (Calceolariaceae: Scrophulariaceae) against Spodoptera frugiperda and Drosophila melanogaster” (2013).

Experiments:
Format in all cases: functional
Spodoptera frugiperda [1] = assay: Insecticidal activity against first-instar larval stage of Spodoptera frugiperda (fall armyworm) fed with compound incorporated diet assessed as mortality at 5 ug/ml after 7 days (reference value: 5.6%); details: 168 h
Spodoptera frugiperda [2] = assay: Growth inhibitory activity against first-instar larval stage of Spodoptera frugiperda (fall armyworm) fed with compound incorporated diet assessed as length gained at 35 ug/ml after 21 days (reference value: 100%)
Spodoptera frugiperda [3] = assay: Growth inhibitory activity against po dosed fourth-instar larvae of Spodoptera frugiperda (fall armyworm) assessed as proportion of prothetely appearance of precocious pupal structure in larvae after 48 to 72 hr; set-up: scale not given: the % may be the effect or the level left
Spodoptera frugiperda [4] = assay: Growth inhibitory activity against Spodoptera frugiperda (fall armyworm) larvae fed with compound containing diet assessed as growth index at 20 ug/ml (reference value: 0.95 +/-0.02 no_unit)
Spodoptera frugiperda [5] = assay: Growth inhibitory activity against Spodoptera frugiperda (fall armyworm) larvae fed with compound containing diet assessed as reduction in adult emergence at 35 ug/ml
Spodoptera frugiperda [6] = assay: Growth inhibitory activity against first-instar larval stage of Spodoptera frugiperda (fall armyworm) fed with compound incorporated diet assessed as length gained at 35 ug/ml after 7 days (reference value: 100%)
Spodoptera frugiperda [7] = assay: Growth inhibitory activity against first-instar larval stage of Spodoptera frugiperda (fall armyworm) fed with compound incorporated diet assessed as length gained at 20 ug/ml after 7 days (reference value: 100%)
Spodoptera frugiperda [8] = assay: Insecticidal activity against first-instar larval stage of Spodoptera frugiperda (fall armyworm) fed with compound incorporated diet assessed as mortality at 20 ug/ml after 21 days (reference value: 5.6%); details: 504 h
Spodoptera frugiperda [9] = assay: Insecticidal activity against first-instar larval stage of Spodoptera frugiperda (fall armyworm) fed with compound incorporated diet assessed as mortality at 10 ug/ml after 7 days (reference value: 5.6%); details: 168 h
Spodoptera frugiperda [10] = assay: Growth inhibitory activity against first-instar larval stage of Spodoptera frugiperda (fall armyworm) fed with compound incorporated diet assessed as weight gained at 5 ug/ml after 7 days (reference value: 100%); set-up: scale not given: the % may be the effect or the level left
Spodoptera frugiperda [11] = assay: Insecticidal activity against first-instar larval stage of Spodoptera frugiperda (fall armyworm) fed with compound incorporated diet assessed as mortality at 50 ug/ml after 7 days (reference value: 5.6%); details: 168 h
Drosophila melanogaster [12] = assay: Insecticidal activity against Drosophila melanogaster larvae fed with compound incorporated diet assessed as mortality at 20 ug/ml after 72 hr by not choice test (reference value: 0%)
Spodoptera frugiperda [13] = assay: Growth inhibitory activity against Spodoptera frugiperda (fall armyworm) larvae fed with compound containing diet assessed as reduction in adult emergence at 20 ug/ml
Spodoptera frugiperda [14] = assay: Growth inhibitory activity against first-instar larval stage of Spodoptera frugiperda (fall armyworm) fed with compound incorporated diet assessed as length gained at 50 ug/ml after 21 days (reference value: 100%)
Spodoptera frugiperda [15] = assay: Growth inhibitory activity against first-instar larval stage of Spodoptera frugiperda (fall armyworm) fed with compound incorporated diet assessed as weight gained at 20 ug/ml after 7 days (reference value: 100%); set-up: scale not given: the % may be the effect or the level left
Spodoptera frugiperda [16] = assay: Growth inhibitory activity against Spodoptera frugiperda (fall armyworm) larvae fed with compound containing diet assessed as relative growth index at 5 ug/ml (reference value: 1.0 no_unit)
Drosophila melanogaster [17] = assay: Insecticidal activity against Drosophila melanogaster larvae fed with compound incorporated diet assessed as mortality at 5 ug/ml after 72 hr by not choice test (reference value: 0%)
Drosophila melanogaster [18] = assay: Insecticidal activity against Drosophila melanogaster larvae fed with compound incorporated diet assessed as mortality at 35 ug/ml after 72 hr by not choice test (reference value: 0%)
Spodoptera frugiperda [19] = assay: Growth inhibitory activity against Spodoptera frugiperda (fall armyworm) larvae fed with compound containing diet assessed as delay in time to pupation at 5 ug/ml
Spodoptera frugiperda [20] = assay: Acute toxicity against last larval stage of Spodoptera frugiperda (fall armyworm) assessed as survival at 20 ug/ml applied topically onto abdomen measured after 24 hr (reference value: 98.8 +/-3.5%)
Spodoptera frugiperda [21] = assay: Growth inhibitory activity against Spodoptera frugiperda (fall armyworm) larvae fed with compound containing diet assessed as relative growth index at 50 ug/ml (reference value: 1.0 no_unit)
Spodoptera frugiperda [22] = assay: Growth inhibitory activity against Spodoptera frugiperda (fall armyworm) larvae fed with compound containing diet assessed as reduction in survival pupation at >35 ug/ml
Drosophila melanogaster [23] = assay: Insecticidal activity against Drosophila melanogaster larvae fed with compound incorporated diet assessed as mortality at 100 ug/ml after 72 hr by not choice test (reference value: 0%)
Spodoptera frugiperda [24] = assay: Acute toxicity against last larval stage of Spodoptera frugiperda (fall armyworm) assessed as survival at 50 ug/ml applied topically onto abdomen measured after 24 hr (reference value: 98.8 +/-3.5%)
Spodoptera frugiperda [25] = assay: Acute toxicity against last larval stage of Spodoptera frugiperda (fall armyworm) assessed as survival at 35 ug/ml applied topically onto abdomen measured after 24 hr (reference value: 98.8 +/-3.5%)
Spodoptera frugiperda [26] = assay: Acute toxicity against last larval stage of Spodoptera frugiperda (fall armyworm) assessed as survival at 70 ug/ml applied topically onto abdomen measured after 24 hr (reference value: 98.8 +/-3.5%)
Spodoptera frugiperda [27] = assay: Growth inhibitory activity against Spodoptera frugiperda (fall armyworm) larvae fed with compound containing diet assessed as growth index at 50 ug/ml (reference value: 0.95 +/-0.02 no_unit)
Spodoptera frugiperda [28] = assay: Growth inhibitory activity against Spodoptera frugiperda (fall armyworm) larvae fed with compound containing diet assessed as delay in time to pupation at 20 ug/ml

Structure (SMILES) | mortality at 5 µg/mL (Spodoptera frugiperda [1]) | Length gained relative to control (Spodoptera frugiperda [2]) | Activity (Spodoptera frugiperda [3]) | Growth_index (Spodoptera frugiperda [4]) | inhibition at 35 µg/mL (Spodoptera frugiperda [5]) | Length gained relative to control (Spodoptera frugiperda [6]) | Length gained relative to control (Spodoptera frugiperda [7]) | mortality at 20 µg/mL (Spodoptera frugiperda [8]) | mortality at 10 µg/mL (Spodoptera frugiperda [9]) | Activity (Spodoptera frugiperda [10]) | mortality at 50 µg/mL (Spodoptera frugiperda [11]) | mortality at 20 µg/mL (Drosophila melanogaster [12]) | inhibition at 20 µg/mL (Spodoptera frugiperda [13]) | Length gained (% of control) (Spodoptera frugiperda [14]) | Activity (Spodoptera frugiperda [15]) | Growth_index (Spodoptera frugiperda [16]) | Activity (Spodoptera frugiperda [20]) | mortality at 100 µg/mL (Drosophila melanogaster [23]) | Activity (Spodoptera frugiperda [25]) | also measured
C=CC(C)(C)C1=C(O)C(=O)c2ccccc2C1=O | 41.7% | 4.1% | 30% | 0.12 | 0% | 10% | 20.8% | 98% | 83.3% | 47.4% | 100% | 65% | 0% | 0% | 15.9% | 0.69 | – | – | – | –
C=C[C@]1(C)CC[C@H]2C(=CC[C@@H]3[C@](C)(CO)CC[C@@H]4C[C@@]432)C1 | 20.8% | 0% | 30% | 0.19 | 0% | 7.5% | 18.3% | 100% | 37.3% | 25.1% | 100% | 98% | 0% | 0% | 6.8% | 0.45 | – | – | – | mortality at 5 µg/mL (Drosophila melanogaster [17]): 0%; mortality at 35 µg/mL (Drosophila melanogaster [18]): 100%; Time (Spodoptera frugiperda [19]): >24 days
CC(C)c1ccc2c(c1)CC[C@H]1[C@](C)(CO)CCC[C@]21C [POMIFERIN A] | 33.3% | 37.4% | 30% | 0.91 | 0% | 42.5% | 64.2% | 15% | 41.7% | 89.5% | 83.3% | 67% | 0% | 37.4% | 56.2% | 0.99 | 51% | 82.9% | 6.9% | Growth_index (Spodoptera frugiperda [21]): 0.71; inhibition (INH) (Spodoptera frugiperda [22]): 0%; Activity (Spodoptera frugiperda [24]): 3.9%; Activity (Spodoptera frugiperda [26]): 0%; Growth_index (Spodoptera frugiperda [27]): 0.54
C[C@H]1[C@H](C)CC[C@]2(C(=O)O)CC[C@]3(C)C(=CC[C@@H]4[C@@]5(C)CC[C@H](O)C(C)(C)[C@@H]5CC[C@]43C)[C@H]12 [URSOLIC ACID] | 4.2% | 0% | 30% | 0.28 | 0% | 6.7% | 8.9% | 91.7% | 16.7% | 81.5% | 79.1% | 15.1% | 0% | 0% | 52.5% | 0.98 | 20.1% | 100% | 7.9% | Time (Spodoptera frugiperda [28]): >24 days
